≈ marks a conversion by molar mass, not a printed value. Where two headings read alike, the source gives them in different places.
Experiments:
S. aureus MSSA1 = experiment: Silkworm systemic infection model, therapeutic activity (ED50); type: in vivo, Staphylococcus aureus
Source text: We synthesized 50 compounds (Fig. 2, Supplementary Table 1) using the Steglich esterification scheme[31] in the presence of a […], 1-ethyl-3-(3-dimethylaminopropyl)-carbodiimide hydrochloride (Fig. 1b). Antimicrobial activities of the compounds were examined by determining the MIC against S. aureus MRSA4 in vitro; therapeutic activities were examined using a systemic infection model of silkworms infected with S. aureus MSSA1.
A total of 108,373 compounds from the chemical library of the Drug Discovery Initiative at the University of Tokyo were screened for antibacterial activity against S. aureus strain MRSA4 as previously reported. Those compounds that inhibited the growth of MRSA4 at 100 µM were further evaluated for their therapeutic effects in silkworms infected with S. aureus strain MSSA1 according to previously reported studies[17],[21].

Escherichia coli W3110 = experiment: MIC by broth microdilution assay; type: cell-based; details: median of three experiments
Method: (§1) Antimicrobial activity was assessed by determining the MIC by broth dilution assay according to our previous reports[21],[35],[36] as per the Clinical and Laboratory Standards Institute[37]. Briefly, serial dilutions of compound 5, compound 7, and positive controls were prepared in cation-adjusted Mueller-Hinton Broth (MHB, Difco, Franklin Lakes, NJ, USA), 100 µl of which was dispensed into each well of a round-bottomed 96-well plate. The final concentrations in the well ranged from 128 µg/ml to 0.0625 µg/ml. Bacteria were grown at 37 °C overnight on either Luria Bertani (tryptone 10 g/l, yeast extract 5 g/l, NaCl 10 g/l) or Tryptic Soy Broth (TSB, Difco) agar plates or sheep blood agar plates (Eiken Chemical Co. Ltd., Tokyo, Japan). Bacterial inoculum was prepared by direct suspension of the colonies in 0.9% saline, and adjusted to obtain a turbidity equivalent to a 0.5 McFarland standard using a spectrophotometer UV-1280 (Shimadzu Corp., Kyoto, Japan). The suspension was then diluted 1:20 in cation-adjusted MHB (Difco), and 10 µl of it was inoculated into each well of previously prepared 96-well plates containing compounds to obtain approximately 5 × 10^4 colony forming units/well and incubated at 37 °C for 20 h. […] Vancomycin (Wako Pure Chemicals) or norfloxacin (Sigma Aldrich, St Louis, MO, USA) were used as positive controls. Each plate contained a growth control well and a vehicle control well. The MIC was determined as the minimum concentration that inhibited the growth of the bacteria.

NCTC8325 = experiment: MIC by broth microdilution assay; type: cell-based; details: Staphylococcus aureus, MSSA / NCTC 8325, median of three experiments
Method: as §1

[1] = system: Staphylococcus pseudintermedius JCM17571; experiment: MIC by broth microdilution assay; type: cell-based; details: median of three experiments
Method: as §1

[2] = system: Streptococcus sanguinis JCM5708; experiment: MIC by broth microdilution assay; type: cell-based; details: MHB with 2.5% lysed horse blood, 24 h, median of three experiments
Method: as §1

[3] = system: Bacillus subtilis JCM2499; experiment: MIC by broth microdilution assay; type: cell-based; details: median of three experiments
Method: as §1

[4] = system: Pseudomonas aeruginosa PAO1; experiment: MIC by broth microdilution assay; type: cell-based; details: median of three experiments
Method: as §1

[5] = system: Listeria monocytogenes 10403S; experiment: MIC by broth microdilution assay; type: cell-based; details: median of three experiments
Method: as §1

[6] = system: Vancomycin- resistant E. faecalis EF5; experiment: MIC by broth microdilution assay; type: cell-based; details: Enterococcus faecalis, median of three experiments
Method: as §1

[7] = system: USA300 FPR3757 (clinical isolate); experiment: MIC by broth microdilution assay; type: cell-based; details: Staphylococcus aureus, MRSA, median of three experiments
Method: as §1

Newman = experiment: MIC by broth microdilution assay; type: cell-based; details: Staphylococcus aureus, MSSA, median of three experiments
Method: as §1

[8] = system: Enterococcus faecalis EF1; experiment: MIC by broth microdilution assay; type: cell-based; details: median of three experiments
Method: as §1

Smith ATCC13709 = experiment: MIC by broth microdilution assay; type: cell-based; details: Staphylococcus aureus, ATCC 13709 / MSSA, median of three experiments
Method: as §1

Bacillus cereus JCM20037 = experiment: MIC by broth microdilution assay; type: cell-based; details: median of three experiments
Method: as §1

MSSA1 (clinical isolate) = experiment: MIC by broth microdilution assay; type: cell-based; details: Staphylococcus aureus, MSSA, median of three experiments
Method: as §1

Staphylococcus simulans = experiment: MIC by broth microdilution assay; type: cell-based; details: median of three experiments
Method: as §1

[9] = system: Staphylococcus haemolyticus JCM2416; experiment: MIC by broth microdilution assay; type: cell-based; details: median of three experiments
Method: as §1

[10] = system: Streptococcus pneumoniae (clinical isolate); experiment: MIC by broth microdilution assay; type: cell-based; details: MHB with 2.5% lysed horse blood, 24 h, median of three experiments
Method: as §1, with “obtain approximately 5 × 10^4 colony forming units/well and incubated at 37 °C for 20 h.” left out

[11] = system: Streptococcus pyogenes SSI-9; experiment: MIC by broth microdilution assay; type: cell-based; details: SSI9, MHB with 2.5% lysed horse blood, 24 h, median of three experiments
Method: as §1, with “obtain approximately 5 × 10^4 colony forming units/well and incubated at 37 °C for 20 h.” left out

[12] = system: Streptococcus agalactiae JCM5671; experiment: MIC by broth microdilution assay; type: cell-based; details: MHB with 2.5% lysed horse blood, 24 h, median of three experiments
Method: as §1, with “obtain approximately 5 × 10^4 colony forming units/well and incubated at 37 °C for 20 h.” left out

[13] = Staphylococcus aureus, silkworms infected with S. aureus MSSA1 (Fig. 2), read-out: ED50

| SMILES | ED50 (S. aureus MSSA1; S. aureus-infected silkworms) [µg/g] | ED50 (S. aureus MSSA1; [13]) [mg/kg] | MIC (Escherichia coli W3110) [µg/mL] | MIC (NCTC8325) [µg/mL] | MIC [1] [µg/mL] | MIC [2] [µg/mL] | MIC [3] [µg/mL] | MIC [4] [µg/mL] | MIC [5] [µg/mL] | MIC [6] [µg/mL] | MIC [7] [µg/mL] | MIC (Newman) [µg/mL] | MIC [8] [µg/mL] | MIC (Smith ATCC13709) [µg/mL] | MIC (Bacillus cereus JCM20037) [µg/mL] | MIC (MSSA1 (clinical isolate)) [µg/mL] | MIC (Staphylococcus simulans) [µg/mL] | MIC [9] [µg/mL] | MIC [10] [µg/mL] | MIC [11] [µg/mL] | other results |
| --- | --- | --- | --- | --- | --- | --- | --- | --- | --- | --- | --- | --- | --- | --- | --- | --- | --- | --- | --- | --- | --- |
| O=C(OCc1cc(Cl)cc(Cl)c1)c1ccc([N+](=O)[O-])s1 [compound 5] | 22 | 22 | > 128 | 0.5 (≈ 1.51 µM) | 0.125 (≈ 0.376 µM) | > 128 | 1 (≈ 3.01 µM) | > 128 | > 128 | > 128 | 1 (≈ 3.01 µM) | 0.5 (≈ 1.51 µM) | > 128 | 0.5 (≈ 1.51 µM) | 1 (≈ 3.01 µM) | 0.5 (≈ 1.51 µM) | 0.25 (≈ 0.753 µM) | 0.25 (≈ 0.753 µM) | 1 (≈ 3.01 µM) | 8 (≈ 24.1 µM) | MIC [12]: > 128 µg/mL |
| O=C(OCc1ccccc1)c1ccc([N+](=O)[O-])s1 [compound 7] | > 170 | > 170 | > 128 | 1 (≈ 3.8 µM) | 0.5 (≈ 1.9 µM) | > 128 | 1 (≈ 3.8 µM) | > 128 | > 128 | > 128 | 1 (≈ 3.8 µM) | 1 (≈ 3.8 µM) | > 128 | 0.5 (≈ 1.9 µM) | 1 (≈ 3.8 µM) | 1 (≈ 3.8 µM) | 0.5 (≈ 1.9 µM) | 0.25 (≈ 0.95 µM) | 1 (≈ 3.8 µM) | 16 (≈ 60.8 µM) | MIC [12]: > 128 µg/mL |

— article PMC5785531, “Pharmacokinetic parameters explain the therapeutic activity of antimicrobial agents in a silkworm infection model” (Scientific Reports, 2018)
